Several values for one entry are separate records, joined by “and”; a condition that tells them apart may be missing. Equal values may be shown once. Entries after “also recorded” stand apart in the source; their conditions may differ. Read-outs that look alike come from different tables or passages of the source. Blank lines part the entries; values can stand above or below the compound they belong to.
Columns and labels:
mGlu3 [1] = target: T1, mGlu3 (Homo sapiens, UniProt Q14832); assay: mGlu3 GIRK assay; format: cell-based
T1 sequence (Q14832 23-879): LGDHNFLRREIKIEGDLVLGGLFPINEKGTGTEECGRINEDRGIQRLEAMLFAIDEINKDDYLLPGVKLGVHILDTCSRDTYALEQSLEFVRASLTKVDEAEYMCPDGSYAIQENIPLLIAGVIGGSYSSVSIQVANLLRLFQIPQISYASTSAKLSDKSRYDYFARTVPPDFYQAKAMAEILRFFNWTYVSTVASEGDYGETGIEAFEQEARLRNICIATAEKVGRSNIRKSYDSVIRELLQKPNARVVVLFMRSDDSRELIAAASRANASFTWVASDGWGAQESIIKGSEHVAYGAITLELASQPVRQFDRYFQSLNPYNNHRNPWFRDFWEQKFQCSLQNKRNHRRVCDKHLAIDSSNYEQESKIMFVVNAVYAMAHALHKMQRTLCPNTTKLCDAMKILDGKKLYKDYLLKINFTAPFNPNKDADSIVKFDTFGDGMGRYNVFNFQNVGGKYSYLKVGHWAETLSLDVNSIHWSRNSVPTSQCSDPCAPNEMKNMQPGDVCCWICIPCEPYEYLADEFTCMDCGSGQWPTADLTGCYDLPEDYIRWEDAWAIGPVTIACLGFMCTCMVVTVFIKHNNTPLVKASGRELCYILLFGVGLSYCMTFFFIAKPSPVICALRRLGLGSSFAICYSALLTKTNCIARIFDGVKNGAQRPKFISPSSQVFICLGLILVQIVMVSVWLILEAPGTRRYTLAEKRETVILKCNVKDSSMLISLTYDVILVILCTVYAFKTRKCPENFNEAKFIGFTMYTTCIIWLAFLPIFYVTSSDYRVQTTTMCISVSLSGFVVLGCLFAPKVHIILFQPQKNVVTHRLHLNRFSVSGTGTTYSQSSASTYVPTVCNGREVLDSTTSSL

six other mGlu subtypes = assay: Activity at the six other mGlu subtypes; format: cell-based
mGlu2 = mGlu2 (Homo sapiens, UniProt Q14416); assay: mGlu2 GIRK assay; format: cell-based; conditions: mGlu3 NAM potency versus mGlu2 GIRK
Sequence of mGlu2 (Q14416 19-872): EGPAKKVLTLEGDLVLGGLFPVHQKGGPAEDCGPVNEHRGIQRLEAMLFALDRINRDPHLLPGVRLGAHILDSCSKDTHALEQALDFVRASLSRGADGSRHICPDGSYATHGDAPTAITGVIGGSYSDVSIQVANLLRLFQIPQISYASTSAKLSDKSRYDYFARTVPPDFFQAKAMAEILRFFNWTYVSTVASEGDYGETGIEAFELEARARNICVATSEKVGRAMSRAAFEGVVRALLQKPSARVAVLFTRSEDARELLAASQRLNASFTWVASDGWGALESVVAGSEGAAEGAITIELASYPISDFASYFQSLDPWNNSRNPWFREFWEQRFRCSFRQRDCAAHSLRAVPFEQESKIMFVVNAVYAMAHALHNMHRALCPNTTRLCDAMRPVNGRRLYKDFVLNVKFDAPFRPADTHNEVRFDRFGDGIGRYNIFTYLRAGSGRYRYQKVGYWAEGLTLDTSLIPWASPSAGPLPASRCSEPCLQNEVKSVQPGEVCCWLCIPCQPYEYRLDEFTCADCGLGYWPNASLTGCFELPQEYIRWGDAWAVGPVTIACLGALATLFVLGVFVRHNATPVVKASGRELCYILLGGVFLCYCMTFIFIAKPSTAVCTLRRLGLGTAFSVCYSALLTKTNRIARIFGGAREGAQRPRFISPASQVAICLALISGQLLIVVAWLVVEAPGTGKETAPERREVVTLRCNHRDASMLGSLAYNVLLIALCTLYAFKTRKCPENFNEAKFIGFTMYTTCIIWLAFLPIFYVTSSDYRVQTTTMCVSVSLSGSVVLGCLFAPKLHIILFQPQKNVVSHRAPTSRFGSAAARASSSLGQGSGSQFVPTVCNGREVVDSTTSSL

mGlu5 = mGlu5 (Homo sapiens, UniProt P41594); assay: mGlu5 calcium assay; format: cell-based
Sequence of mGlu5 (P41594 21-1212): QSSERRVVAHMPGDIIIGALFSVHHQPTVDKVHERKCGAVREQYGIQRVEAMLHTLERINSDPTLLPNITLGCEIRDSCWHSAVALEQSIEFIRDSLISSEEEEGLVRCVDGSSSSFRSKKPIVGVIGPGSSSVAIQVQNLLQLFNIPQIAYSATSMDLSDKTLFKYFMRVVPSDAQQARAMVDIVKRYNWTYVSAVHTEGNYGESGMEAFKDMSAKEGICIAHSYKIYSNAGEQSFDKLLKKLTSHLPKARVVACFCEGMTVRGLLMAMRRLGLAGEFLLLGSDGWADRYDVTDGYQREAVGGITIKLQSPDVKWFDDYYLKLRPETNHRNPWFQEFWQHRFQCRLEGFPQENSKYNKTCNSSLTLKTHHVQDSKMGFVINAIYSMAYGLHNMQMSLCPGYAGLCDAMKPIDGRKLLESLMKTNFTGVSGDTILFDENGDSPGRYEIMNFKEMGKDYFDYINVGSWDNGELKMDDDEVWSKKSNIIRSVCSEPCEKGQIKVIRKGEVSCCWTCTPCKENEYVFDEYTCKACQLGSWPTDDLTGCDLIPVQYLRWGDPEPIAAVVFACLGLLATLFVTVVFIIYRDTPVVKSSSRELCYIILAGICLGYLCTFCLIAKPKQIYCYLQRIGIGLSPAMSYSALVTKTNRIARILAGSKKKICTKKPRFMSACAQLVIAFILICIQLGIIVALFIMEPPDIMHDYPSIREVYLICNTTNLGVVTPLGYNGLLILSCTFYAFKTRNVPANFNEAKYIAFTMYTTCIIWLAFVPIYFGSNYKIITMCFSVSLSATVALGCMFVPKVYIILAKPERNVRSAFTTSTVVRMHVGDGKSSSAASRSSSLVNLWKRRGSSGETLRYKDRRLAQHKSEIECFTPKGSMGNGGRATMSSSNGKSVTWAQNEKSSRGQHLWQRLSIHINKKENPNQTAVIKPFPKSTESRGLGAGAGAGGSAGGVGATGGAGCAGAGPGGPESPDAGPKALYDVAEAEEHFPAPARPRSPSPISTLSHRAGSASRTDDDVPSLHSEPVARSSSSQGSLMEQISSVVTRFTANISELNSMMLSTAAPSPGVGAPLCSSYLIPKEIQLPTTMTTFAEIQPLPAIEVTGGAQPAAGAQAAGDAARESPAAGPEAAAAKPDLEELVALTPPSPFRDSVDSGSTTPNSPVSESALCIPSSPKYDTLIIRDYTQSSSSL

mGlu3 [2] = target: T1, mGlu3; assay: mGlu3 calcium assay, mGlu3 co-expressed with promiscuous G protein Gα15; format: cell-based
mGlu3 [3] = target: T1, mGlu3; assay: Schild analysis, glutamate concentration-response in mGlu3 GIRK; format: cell-based; conditions: rightward shift and decreased maximal efficacy of glutamate
[4] = tested on: 68 GPCRs, ion channels and transporters; assay: Lead Profiling Screen at Ricerca, radioligand binding assays; conditions: screened at 10 μM, 68 targets
[5] = Intrinsic clearance in rat liver microsomes; format: in vitro ADME
[6] = Intrinsic clearance in human liver microsomes; format: in vitro ADME
[7] = Metabolite ID in rat liver microsomes; format: in vitro ADME
[8] = Metabolite ID in human liver microsomes; format: in vitro ADME
IP plasma:brain level = format: in vivo, rat; conditions: 10 mg/kg IP
[9] = 10% Tween80 in 0.5% methylcellulose

IC50 (mGlu3 [1]; mGlu3 IC50, mGlu3 GIRK assay): ~10 µM and > 10 µM
SMILES: O=C(c1ccc(C#Cc2ccccc2)cc1)N1CCC(O)CC1 [Compound 3]
activity at the six other mGlu subtypes (six other mGlu subtypes): no activity

block of the glutamate EC80 (in words) (mGlu3 [1]; mGlu3 GIRK assay): full block
SMILES: COc1ccc(C#Cc2ccc(C(=O)N3CCCC(CO)C3)cc2)cc1 (stereo not drawn) [Compound 10e]

block of the glutamate EC80 (in words) (mGlu3 [1]; mGlu3 GIRK assay): full blockade
potency ratio of 11 over 12 (mGlu3 [1]; mGlu3 GIRK assay): 2 fold
selectivity versus mGlu2 (mGlu2): > 15 fold
activity/selectivity against mGlu5 (in words) (mGlu5): complete specificity versus mGlu5
potentiation of an EC20 concentration of glutamate at mGlu5 (mGlu5; mGlu5 calcium assay, PAM mode): inactive
inhibition of an EC80 concentration of glutamate at mGlu5 (mGlu5; mGlu5 calcium assay, antagonist mode): inactive
% Glu Min (mGlu3 [2]): 2.1±0.3%
inhibition of off-targets [4]: ≤ 25%
CLint scaled [5]: 240 mL/min/kg
CLint scaled [6]: 572 mL/min/kg
principle biotransformation pathway [7]: P450-mediated O-demethylation
principle biotransformation pathway [8]: P450-mediated O-demethylation
brain level (IP plasma:brain level; [9]): 16.3 µM
plasma level (IP plasma:brain level; [9]): 9.7 µM
free concentration in rat brain (IP plasma:brain level; based on brain homogenate binding): ~ 163 nM
SMILES: COc1ccc(C#Cc2ccc(C(=O)N3CCC[C@@H](CO)C3)cc2)cc1 [Compound 11]
activity/selectivity against mGlu5 (in words) (mGlu5; listed as ML289): inactive; also recorded: highly selective versus mGlu5
mechanism of mGlu3 antagonism (mGlu3 [3]): non-competitive (allosteric) mechanism of action

block of the glutamate EC80 (in words) (mGlu3 [1]; mGlu3 GIRK assay): full blockade
SMILES: COc1ccc(C#Cc2ccc(C(=O)N3CCC[C@H](CO)C3)cc2)cc1 [Compound 12]

Source: PMC3365510 (Bioorganic & medicinal chemistry letters, 2012)
